# Earlier results, collected in patent US20240189459A1, “METASTABLE-FREE LANTHANIDE BASED CONTRAST AGENTS AND METHOD” (Inventure LLC, priority 2022, published 2024).
# Conditions: thermodynamic stability constant of the DOTA complex with the listed metal ion
row,Stability Constant,SMILES
1,24.8,O=C([O-])CN1CCN(CC(=O)[O-])CCN(CC(=O)[O-])CCN(CC(=O)[O-])CC1.[Dy+3] [Dy^+3]
2,24.7,O=C([O-])CN1CCN(CC(=O)[O-])CCN(CC(=O)[O-])CCN(CC(=O)[O-])CC1.[Gd+3] [Gd^+3]
3,23,O=C([O-])CN1CCN(CC(=O)[O-])CCN(CC(=O)[O-])CCN(CC(=O)[O-])CC1.[Pr+3] [Pr^+3]
4,24.4,O=C([O-])CN1CCN(CC(=O)[O-])CCN(CC(=O)[O-])CCN(CC(=O)[O-])CC1.[Tm+3] [TM^+3]

# The remaining lines, values behind:
row,SMILES,Stability Constant
1,O=C([O-])CN1CCN(CC(=O)[O-])CCN(CC(=O)O)CCN(CC(=O)O)CC1.[Ca+2] [Ca^+2],17.2
2,O=C([O-])CN1CCN(CC(=O)[O-])CCN(CC(=O)[O-])CCN(CC(=O)[O-])CC1.[Cu+2] [Cu^+2],22.3
3,O=C([O-])CN1CCN(CC(=O)[O-])CCN(CC(=O)[O-])CCN(CC(=O)[O-])CC1.[Eu+3] [Eu^+3],23.5
4,O=C([O-])CN1CCN(CC(=O)[O-])CCN(CC(=O)[O-])CCN(CC(=O)[O-])CC1.[Fe+3] [Fe^+3],29.4
5,O=C([O-])CN1CCN(CC(=O)[O-])CCN(CC(=O)O)CCN(CC(=O)O)CC1.[Mg+2] [Mg^+2],11.9
6,O=C([O-])CN1CCN(CC(=O)O)CCN(CC(=O)O)CCN(CC(=O)O)CC1.[Na+] [Na^+1],4.2
7,O=C([O-])CN1CCN(CC(=O)[O-])CCN(CC(=O)O)CCN(CC(=O)O)CC1.[Zn+2] [Zn^+2],20.8
